What all share (assay type): biochemical
Holding throughout (conditions): pH 8.0, 37° C., mean value of 2 experiments

The target in experiment [1] is Serratia sp. strain MK1 phospholipase A1 mutant TA3 (substitutions at positions 32, 39, 65, 105, 153, 158 and 303 with P, A, L, V, I, I and E); SEQ ID NO: 6; DNA (Serratia sp. MK1, UniProt Q9X9D8, E105V/K303E/M153I/Q32P/S158I/S65L/T39A). Put plainly: kinetic parameters of phospholipase A1 mutant TA3 (pH-stat titration of fatty acid released from phosphatidylcholine). An excerpt:
(§1) The amino acid sequence of TA3 was deduced from the nucleotide sequence of TA3 comprising thermostable phospholipase A1 mutant gene and set forth in SEQ ID NO: 6, and the amino acid sequence of TA13 was deduced from the nucleotide sequence of TA13 and set forth in SEQ ID NO: 7. When the amino acid sequences of thermostable phopholipase mutants, TA3 and TA13 were compared with that of naturally occurring phospholipase A1, TA3 and TA13 were identified as novel proteins with 7 and 6 amino acid substitutions, respectively. Phospholipase TA3 has been identified to have amino acid substitutions at positions of 32, 39, 65, 105, 153, 158 and 303 with P, A, L, V, I, I, and E and phospholipase TA13 has been identified to have amino acid substitutions at positions of 36, 102, 154, 158, 281 and 291 with Q, N, K, W, Q and N, respectively.
(§2) Catalytic activity of phospholipase A1 was determined using pH-stat titration method. The amount of released fatty acid from enzyme reaction was measured at 37° C. in a pH-stat (Radiometer Copenhagen, France) equipped with autotiter and autoburette. To a substrate solution containing 3.4 mM phosphatidylcholine, 10 mM CaCl2 and 2.6 mM deoxycholic acid, sonicated for emulsification, was added phospholipase A1 enzyme solution and then the amount of released fatty acid was measured. One unit is defined as the amount of enzyme that releases 1μ mole of free fatty acid per minute from phosphatidylcholine at 37° C. and pH 8.0 in a pH-stat.

The target of experiment [2] is Serratia sp. strain MK1 phospholipase A1 mutant TA13 (substitutions at positions 36, 102, 154, 158, 281 and 291 with Q, N, K, W, Q and N); SEQ ID NO: 7; DNA SEQ (Serratia sp. MK1, UniProt Q9X9D8, E35Q/K290N/L157W/L280Q/M153K/S101N). Put plainly: kinetic parameters of phospholipase A1 mutant TA13 (pH-stat titration of fatty acid released from phosphatidylcholine).
Excerpt: as §1, §2

The target in experiment [3] is Serratia sp. strain MK1 phospholipase A1 (PLA1), wild-type (naturally occurring; gene SEQ ID NO: 1) (Serratia sp. MK1, UniProt Q9X9D8). Put plainly: kinetic parameters of phospholipase A1 (pH-stat titration of fatty acid released from phosphatidylcholine). As for the experimental part: as §2

One may read the Km as the substrate concentration at which the rate is half of its maximum.

Serratia sp. strain MK1 phospholipase A1 mutant TA13 (substitutions at positions 36, 102, 154, 158, 281 and 291 with Q, N, K, W, Q and N); SEQ ID NO: 7; DNA SEQ, sequence (Q9X9D8 entry or part of it E35Q/S101N/M153K/L157W/L280Q/K290N): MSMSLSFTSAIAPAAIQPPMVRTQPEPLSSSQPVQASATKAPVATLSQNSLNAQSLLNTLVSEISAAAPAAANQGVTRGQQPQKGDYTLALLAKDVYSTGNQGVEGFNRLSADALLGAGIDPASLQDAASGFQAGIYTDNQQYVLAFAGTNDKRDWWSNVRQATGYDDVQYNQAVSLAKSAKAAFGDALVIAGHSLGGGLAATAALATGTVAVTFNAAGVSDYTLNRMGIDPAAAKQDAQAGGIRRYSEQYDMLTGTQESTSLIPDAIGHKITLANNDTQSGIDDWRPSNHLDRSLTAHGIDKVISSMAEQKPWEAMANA
Serratia sp. strain MK1 phospholipase A1 mutant TA3 (substitutions at positions 32, 39, 65, 105, 153, 158 and 303 with P, A, L, V, I, I and E); SEQ ID NO: 6; DNA, sequence (Q9X9D8 entry or part of it Q32P/T39A/S65L/E105V/M153I/S158I/K303E): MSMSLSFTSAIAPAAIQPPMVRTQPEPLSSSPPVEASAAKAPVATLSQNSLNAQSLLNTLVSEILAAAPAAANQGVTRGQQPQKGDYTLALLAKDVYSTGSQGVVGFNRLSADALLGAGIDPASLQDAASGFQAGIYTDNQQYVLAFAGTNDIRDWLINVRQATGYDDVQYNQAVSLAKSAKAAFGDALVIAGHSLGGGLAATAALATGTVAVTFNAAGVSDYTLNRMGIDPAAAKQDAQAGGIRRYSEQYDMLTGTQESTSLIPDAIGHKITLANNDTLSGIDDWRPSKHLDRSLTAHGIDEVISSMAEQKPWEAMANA
Serratia sp. strain MK1 phospholipase A1 (PLA1), wild-type (naturally occurring; gene SEQ ID NO: 1), sequence (Q9X9D8 entry or part of it): as the sequence (Q9X9D8 entry or part of it E35Q/S101N/M153K/L157W/L280Q/K290N) above, with Q35E, N101S, K153M, W157L, Q280L, N290K counted along it

Consider phosphatidylcholine, for which, in experiment [1], the Kcat was 10.92 S^−1, the Kcat/Km worked out at 0.104 S^−1 μM and the Michaelis constant (Km) came out at 105 µM. Besides, in experiment [2], the Kcat amounted to 13.67 S^−1, the Kcat/Km is given as 0.114 S^−1 μM and the Km came out at 120 µM. In experiment [3], the Kcat came out at 11.23 S^−1, the Kcat/Km was 0.093 S^−1 μM and the Km is 114 µM.

The values above are taken from patent US6610524B2, “Thermostable phospholipase A1 mutants and a process for preparing the same” (priority 2000, dated 2003).
